These results are taken from ChEMBL document CHEMBL1148417, “Thiol-based SAHA analogues as potent histone deacetylase inhibitors” (Bioorg Med Chem Lett, 2004).

This test concerns the target Histone deacetylase. Type of test: protein assay.

Molecules are shown by their SMILES.

Description: In vitro inhibitory activity against human histone deacetylase (HDAC) using HeLa nuclear extract

Consider `O=C(CCCCCCNCCS)Nc1ccccc1.O=C(O)C(F)(F)F`, for which the IC50 is over 100 µM. The figure for `CSCCCCCCC(=O)Nc1ccccc1` is over 100 µM.
